From patent US10472341B2, “Bicyclic tetrahydrothiazepine derivatives useful for the treatment of neoplastic and/or infectious diseases” (APEIRON BIOLOGICS AG, priority 2015, dated 2019)
Structures can show the parent of a compound that is named as a salt.

Legend:
[1] = system: human CD19+ B-cells; experiment: Cytokine production in IgM-stimulated isolated human CD19+ B-cells; format: cell-based; settings: for EC50: Homo sapiens, B-cell
Description: Buffy coats were obtained from a local hospital, diluted 3 fold with PBS and layered onto an isotonic Ficoll separating solution d=1.077 g/mL in 50 mL centrifuge tubes. The tubes were centrifuged at 914 g for 25 min at room temperature with the brakes off. The PBMC layer was removed and washed twice with ice-cold PBS. Erythrocytes were lysed by addition of ddH2O and cells were resuspended in X-Vivo15 (Lonza). CD19+ B cells were isolated from PBMCs by negative selection with the aid MACs kits (Miltenyi), according to manufacturer's instructions. Purified fractions were >95% CD19-positive as judged by antibody staining and assessment by cytometry. B-cells were stimulated by adding varying concentrations of human IgM (1.25-20 μg/mL goat F (ab′) 2 anti human IgM-LE/AF, Biozol) in the presence of example 1. Cells were incubated for 18 h at 37° C., 5% CO2. Assay plates were centrifuged at 400 g for 5 min and supernatants harvested. Cytokine concentration in tissue culture supernatants were determined with MSD or HTRF kits (MSD and Cisbio), according to manufacturer's instructions.

[2] = system: OT-I T cells; experiment: OT-I transfer to mice with B16-F10-OVA tumors: tumor antigen-specific T cell proliferation; format: in vivo, mouse; settings: B16-F10-OVA tumor bearing mice; for OT-I T cell proliferation: 10 mg/kg orally; for Proliferation [% proliferated OT-I T cells]: 10 mg/kg dosed orally
Description: • Single cell suspension of splenocytes was prepared from the spleen by rinsing cells through a sterile 70 μm filter with PBS • Cells were collected by centrifugation in an 15 ml tube, the cell pellet was resuspended in 1 ml of Erylyse buffer and incubated at room temperature for 5 minutes, tubes were filled up with PBS and cells were washed twice • Cells were counted and resuspended in the desired buffer volume for MACS-enrichment or flow cytometric analysis Isolation of CD4 T Cells from OT-II Transgenic Mice • Splenocytes were resuspended in MACS buffer ([…] MACS-buffer/10^7 cells) • CD4 T cells were isolated using the CD4 T cell isolation kit (Miltenyi) with LS-columns following manufacturer's recommendations CFSE-Labeling of T Cells • Cells were resuspended in PBS with 0.1% BSA at 1×10^7 cells/ml and CFSE-solution was added to final concentration of 2.5 μM CFSE • Incubated for 10 min at 37° C., swung each 2 min • Same volume of FCS added and incubated for 5 min at room temperature • Cells were washed twice with RMPI-10% FCS medium • Cells were counted and resuspended in PBS or medium at desired concentration OT-II Transfer • Day 0: OT-II cells were transferred in PBS (3*10^6. Cells in 100 μl PBS) by retro-orbital injection • Day 1: WT mice got OVA vaccinated (subcut. flank, 10 μg LPS, 2 μg OVA per animal) • 2 & 4 h later compounds were administrated; for oral dosing compound was used as suspension (0.5% methylcellulose in water), for i.v. dosing compound was solubilized in DMSO and diluted with PBS • Day 2: compounds were administrated twice in the morning (with 2 h time interval) • Day 3: Mice were sacrificed & splenocytes were isolated • T cell proliferation & phenotype was determined by flow cytometry • Flow cytometry-Staining (all Abs purchased from eBioscience and used as recommended by the manufacturer): B220-eF450, CD4-PE, CD25PerCPCy5.5, CD69-PC7, TCRVa2-APC, CD8-AF700, CD3-eF780; CFSE; 7-AAD • Acquisition on Beckman-Coulter Gallios, Analysis using Kaluza Software OT-I Transfer to Mice with B16-F10-OVA Tumors • Day 0: 100000 B16-F10-OVA tumor cells were inoculated subcutaneously at the flank of WT-mice • Day 7: OT-I cells were transferred in PBS (3*10^6. […]

EC50 ([1]; IL-6, IgM 1.25 μg/mL): 2.45 µM | EC50 ([1]; IL-6, IgM 5 μg/mL): 4.68 µM | EC50 ([1]; IL-6, IgM 20 μg/mL): 3.24 µM | EC50 ([1]; TNF-α, IgM 1.25 μg/mL): 3.31 µM | EC50 ([1]; TNF-α, IgM 5 μg/mL): 4.47 µM | EC50 ([1]; TNF-α, IgM 20 μg/mL): 2.95 µM
Structure (SMILES): N[C@H]1CS(=O)(=O)c2cc(F)c(C(=O)NC3CC3(F)F)cc2N(Cc2ccc(Cl)cc2)C1=O (stereo partly drawn) [Example 1, (3R)-3-amino-5-[(4-chlorophenyl)methyl]-N-(2,2-difluorocyclopropyl)-8-fluoro-1,1,4-trioxo-2,3,4,5-tetrahydro-1λ^6,5-benzothiazepine-7-carboxamide hydrochloride]
Fold Diff Mean ([1]; IL-6, IgM 1.25 μg/mL): 1.61 | Fold Diff Mean ([1]; IL-6, IgM 5 μg/mL): 1.92 | Fold Diff Mean ([1]; IL-6, IgM 20 μg/mL): 1.92 | Fold Diff Mean ([1]; TNF-α, IgM 1.25 μg/mL): 1.64 | Fold Diff Mean ([1]; TNF-α, IgM 5 μg/mL): 2.08 | Fold Diff Mean ([1]; TNF-α, IgM 20 μg/mL): 1.87 | OT-I T cell proliferation ([2]; spleen): significantly (p=0.006) increased | OT-I T cell proliferation ([2]; tumor-draining lymphnodes): highly significantly (p=0.0002) enhanced | Proliferation [% proliferated OT-I T cells] ([2]; Lymph node): 12.28% | Proliferation [% proliferated OT-I T cells] ([2]; Spleen): 8.62%
